Structures can show the parent of a compound that is named as a salt.
Legend:
Assay type in all cases: biochemical
[1] = molecular target: T1, GST-tagged recombinant full-length human Pim-2 (Homo sapiens, UniProt Q9P1W9); experiment: PIM-2 Assay (as Example A); conditions: averaged IC50; 4 μM ATP, 1.0 μM PIM2tide, 1.5 nM Pim-2
T1 construct: GST-tagged recombinant full-length human Pim-2; GST
Outline: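 IC50 was derived by 4-parameter logistic fitting of percent-of-control data over a 10-point, 3-fold series (highest 10 μM, 2% DMSO). Reactions held 1.5 nM GST-Pim-2 (full-length, human), 4 μM [γ-33P]ATP and 1.0 μM PIM2tide for 60 min at 22 °C, pH 7.4; 33P-peptide captured on P81 filters.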

recombinant rat PIM-3 = recombinant rat PIM-3 (Rattus norvegicus, UniProt O70444); experiment: PIM-3 Assay (as Example A); conditions: averaged IC50; 30 μM ATP, 3.75 μM PIM2tide, 0.5 nM PIM-3
Outline: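 33P incorporation from 30 μM [γ-33P]ATP into 3.75 μM PIM2tide by 0.5 nM rat PIM-3, 60 min at 22 °C in pH 7.4 MOPS buffer, read by P81 filter capture and scintillation counting. Compounds tested in 3-fold dilutions up to 10 μM final, 2% DMSO; percent-of-control data fitted by 4-parameter logistic for IC50.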

PIM-1 = PIM-1 (Homo sapiens, UniProt P11309); experiment: Enzyme PIM-1 Assay ([33P]ATP incorporation into PIM2tide, filter plate); conditions: averaged IC50; 35 μM ATP, 7.5 μM PIM2tide, 0.25 nM PIM-1, 60 min at 22° C.
Outline: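 Ten-point, 3-fold dilution series (10 μM top, 2% DMSO final) tested for inhibition of 33P transfer from 35 μM ATP to 7.5 μM PIM2tide by 0.25 nM PIM-1. Reaction 60 min, 22 °C, pH 7.4 MOPS/MgCl2 buffer; phosphocellulose capture, scintillation counting, IC50 where fitted POC equals 50.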

Chain of PIM-1 (P11309 whole entry, species assumed): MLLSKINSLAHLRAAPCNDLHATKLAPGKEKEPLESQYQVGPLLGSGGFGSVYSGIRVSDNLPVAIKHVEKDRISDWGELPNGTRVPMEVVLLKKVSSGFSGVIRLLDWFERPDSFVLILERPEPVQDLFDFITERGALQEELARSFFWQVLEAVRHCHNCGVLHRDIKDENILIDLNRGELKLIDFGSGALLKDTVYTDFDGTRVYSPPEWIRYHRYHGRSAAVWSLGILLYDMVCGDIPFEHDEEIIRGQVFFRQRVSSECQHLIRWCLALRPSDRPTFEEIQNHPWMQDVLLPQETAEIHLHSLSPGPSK
T1 sequence (Q9P1W9 whole entry): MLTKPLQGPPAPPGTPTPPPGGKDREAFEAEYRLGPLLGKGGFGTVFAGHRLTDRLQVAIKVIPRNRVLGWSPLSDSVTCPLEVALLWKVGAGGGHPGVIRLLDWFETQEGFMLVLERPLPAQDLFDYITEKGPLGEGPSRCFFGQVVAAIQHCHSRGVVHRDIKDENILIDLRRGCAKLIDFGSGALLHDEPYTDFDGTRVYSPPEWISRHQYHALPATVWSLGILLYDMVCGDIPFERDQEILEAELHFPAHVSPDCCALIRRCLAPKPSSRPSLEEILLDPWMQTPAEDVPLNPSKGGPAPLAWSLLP

Structure (SMILES) | IC50 [1] [nM] | IC50 (recombinant rat PIM-3) [nM] | IC50 (PIM-1) [nM]
CCC(CC)C(=O)OCCOc1cc2nc(-c3nnc4ccc([C@@H](N5CC[C@H](N)C5)C(F)(F)F)cn34)ccc2cc1F [Example 288, 2-(2-(6-((R)-1-((S)-3-aminopyrrolidin-1-yl)-2,2,2-trifluoroethyl)-[1,2,4]triazolo[4,3-a]pyridin-3-yl)-6-fluoroquinolin-7-yloxy)ethyl 2-ethylbutanoate] | > 1000 | 56 | 9.42
CC(C)Oc1c(F)ccc2ccc(-c3nnc4ccc([C@@H](N5CC[C@H](N)C5)C(F)(F)F)cn34)nc12 [Example 109, (S)-1-((R)-2,2,2-trifluoro-1-(3-(7-fluoro-8-isopropoxyquinolin-2-yl)-[1,2,4]triazolo[4,3-a]pyridin-6-yl)ethyl)pyrrolidin-3-amine hydrochloride] | > 100 | 5.5 | 0.28
COCCc1cc2nc(-c3nnc4ccc([C@H](N5CC[C@](C)(N)C5)C(F)(F)F)cn34)ccc2cc1F [Example 284, (S)-3-methyl-1-((S)-2,2,2-trifluoro-1-(3-(6-fluoro-7-(2-methoxyethyl)quinolin-2-yl)-[1,2,4]triazolo[4,3-a]pyridin-6-yl)ethyl)pyrrolidin-3-amine dihydrochloride] | 50 | 0.4 | 0.28
C[C@]1(N)CCN([C@@H](c2ccc3nnc(-c4ccc5cccc(C6CC6)c5n4)n3c2)C(F)(F)F)C1 [Example 96, (S)-1-((S)-1-(3-(8-cyclopropylquinolin-2-yl)-[1,2,4]triazolo[4,3-a]pyridin-6-yl)-2,2,2-trifluoroethyl)-3-methylpyrrolidin-3-amine dihydrochloride] | 5.4 | 0.5 | 0.12
CC(C)Oc1cccc2ccc(-c3nnc4ccc([C@H](N5CC[C@](C)(N)C5)C(F)(F)F)cn34)nc12 [Example 92, (S)-3-methyl-1-((S)-2,2,2-trifluoro-1-(3-(8-isopropoxyquinolin-2-yl)-[1,2,4]triazolo[4,3-a]pyridin-6-yl)ethyl)pyrrolidin-3-amine dihydrochloride] | 33 | 0.8 | 0.22
CC(C)(C)c1cccc2ccc(-c3nnc4ccc([C@H](N5CC[C@@H](O)C5)C(F)(F)F)cn34)nc12 [Example 104] | > 100 | 12 | 0.17
CC1Cc2c(ccc3ccc(-c4nnc5ccc([C@@H](N6CC[C@H](N)C6)C(F)(F)F)cn45)nc23)O1 (stereo partly drawn) [Example 144, (3S)-1-((1R)-2,2,2-trifluoro-1-(3-(8-methyl-8,9-dihydrofuro[2,3-h]quinolin-2-yl)-[1,2,4]triazolo[4,3-a]pyridin-6-yl)ethyl)pyrrolidin-3-amine dihydrochloride] | 48 | 1 | 0.95
CO[C@@H](C)COc1ccc2ccc(-c3nnc4ccc([C@@H](N5CC[C@H](N)C5)C(F)(F)F)cn34)nc2c1 [Example 287, (S)-1-((R)-2,2,2-trifluoro-1-(3-(7-((S)-2-methoxypropoxy)quinolin-2-yl)-[1,2,4]triazolo[4,3-a]pyridin-6-yl)ethyl)pyrrolidin-3-amine dihydrochloride] | 178 | 0.7 | 0.32
OCC1(c2cc(F)cc3ccc(-c4nnc5ccc([C@@H](N6CC[C@H](O)C6)C(F)(F)F)cn45)nc23)CC1 [Example 126, (S)-1-((R)-2,2,2-trifluoro-1-(3-(6-fluoro-8-(1-(hydroxymethyl)cyclopropyl)quinolin-2-yl)-[1,2,4]triazolo[4,3-a]pyridin-6-yl)ethyl)pyrrolidin-3-ol hydrochloride] | > 100 | 1.9 | 0.28
Cc1oc(=O)oc1COC(=O)N[C@H]1CCN([C@H](c2ccc3nnc(-c4ccc5cc(F)c(OCCO)cc5n4)n3c2)C(F)(F)F)C1 [Example 321, (5-methyl-2-oxo-1,3-dioxol-4-yl)methyl ((S)-1-((R)-2,2,2-trifluoro-1-(3-(6-fluoro-7-(2-hydroxyethoxy)quinolin-2-yl)-[1,2,4]triazolo[4,3-a]pyridin-6-yl)ethyl)pyrrolidin-3-yl)carbamate] | 1820 | 6.1 | 1.68
N[C@H]1CCN([C@H](c2ccc3nnc(-c4ccc5cccc(C(F)(F)F)c5n4)n3c2)C(F)(F)F)C1 [Example 161, (S)-1-((R)-2,2,2-trifluoro-1-(3-(8-(trifluoromethyl)quinolin-2-yl)-[1,2,4]triazolo[4,3-a]pyridin-6-yl)ethyl)pyrrolidin-3-amine dihydrochloride] | > 100 | 1.9 | 0.23
N[C@@H]1CCN([C@H](c2ccc3nnc(-c4ccc5cccc(C6CC6)c5n4)n3c2)C(F)(F)F)C1 [Example 47, (R)-1-((R)-1-(3-(8-cyclopropylquinolin-2-yl)-[1,2,4]triazolo[4,3-a]pyridin-6-yl)-2,2,2-trifluoroethyl)pyrrolidin-3-amine dihydrochloride] | 51 | 3.8 | 0.09
CC(C)NC(=O)c1ccc2ccc(-c3nnc4ccc([C@H](N5CC[C@H](N)C5)C(F)(F)F)cn34)nc2c1 [Example 48, 2-(6-((S)-1-((S)-3-aminopyrrolidin-1-yl)-2,2,2-trifluoroethyl)-[1,2,4]triazolo[4,3-a]pyridin-3-yl)-N-isopropylquinoline-7-carboxamide dihydrochloride] | > 100 | 1.9 | 1.41
COc1cccc2ccc(-c3nnc4ccc(C(N5C[C@H](O)[C@@H](O)C5)C(F)(F)F)cn34)nc12 (stereo partly drawn) [Example 19, (3S,4S)-1-(2,2,2-trifluoro-1-(3-(8-methoxyquinolin-2-yl)-[1,2,4]triazolo[4,3-a]pyridin-6-yl)ethyl)pyrrolidine-3,4-diol] | > 1000 | 25 | 2.38
COCCOc1c(F)ccc2ccc(-c3nnc4ccc([C@@H](N5CC[C@H](N)C5)C(F)(F)F)cn34)nc12 [Example 108, (S)-1-((R)-2,2,2-trifluoro-1-(3-(7-fluoro-8-(2-methoxyethoxy)quinolin-2-yl)-[1,2,4]triazolo[4,3-a]pyridin-6-yl)ethyl)pyrrolidin-3-amine hydrochloride] | > 100 | 4.7 | 0.49
CO[C@@H](C)COc1cc2nc(-c3nnc4ccc([C@@H](N5CC[C@H](N)C5)C(F)(F)F)cn34)ccc2cc1F [Example 323, (S)-1-((R)-2,2,2-trifluoro-1-(3-(6-fluoro-7-((S)-2-methoxypropoxy)quinolin-2-yl)-[1,2,4]triazolo[4,3-a]pyridin-6-yl)ethyl)pyrrolidin-3-amine di-hydrochloride] | 145 | 0.2 | 0.14
CCc1cccc2ccc(-c3nnc4ccc([C@@H](N5C[C@@H]6C[C@H]5CN6)C(F)(F)F)cn34)nc12 [Example 66, 2-(6-((R)-1-((1S,4S)-2,5-diazabicyclo[2.2.1]heptan-2-yl)-2,2,2-trifluoroethyl)-[1,2,4]triazolo[4,3-a]pyridin-3-yl)-8-ethylquinoline dihydrochloride] | 14 | 1.7 | 0.92
